# Experiments:
# [1] = test system: IFN-γ, IL-4, IL-17, IL-10; experiment: ELISA of CD4+ T cell subset specific cytokines from spleen derived cells of EAE mice after MOG restimulation; format: in vivo, C57BL/6 mice; conditions: N6022, MOG restimulation
# Method: Female C57BL/6 mice of 8-12 weeks of age, purchased from Jackson Laboratory, were provided with food and water ad libitum and were kept in pathogen free animal care facility of Medical University of South Carolina (MUSC) throughout the study. All procedures were conducted in accordance with accepted standards of humane care as approved by the Institutional Animal Care and Use Committee (Approved number: AR #1644). EAE was induced as described previously (Nath et al., 2009). Briefly, mice were immunized subcutaneously in the flank regions with MOG35-55 peptide (MOG; 200 μg; Peptide International) emulsified (1:1) in 100 ul complete Freund's adjuvant (CFA) on day 0 and day 7. Additionally, 300 ng of Pertussis toxin (Sigma-Aldrich, St. Louis, Mo.) was given on day 0 and day 2 by i.p. injection. Pertussis toxin used as per the standardized protocol reported by us and other investigators for the induction of EAE (Nath et al., 2009). Similarly, healthy control group received subcutaneous injection of PBS and CFA emulsion on day 0 and day 7. Clinical signs of EAE were scored by examiners blinded to experimental treatments using the following scale: 0=no clinical signs of disease; 1=piloerection and sluggish; 2=limp tail (ataxia); 2.5=ataxia with partial hind limb paralysis; 3=full paralysis of hind limb; 3.5=full paralysis of hind limb with paralysis of one fore limb; 4=full paralysis of two limbs; 4.5=moribund stage; 5=death. […] The drug treatments were continued till the termination of the study (day 41 post immunization). EAE animals without drug treatment received PBS. Likewise, healthy controls received vehicle.
# Fluorescence flow cytometry analysis for each subset of CD4+ T cells (TH1, TH2, TH17, CD4+CD25+ FOXP3+ Treg, and CD4+CD25+ FOXP3− Treg) were performed based on our previous report with modification (Nath et al., 2004). Briefly, control mice, EAE mice. EAE mice treated with GSNO. […] Following the preparation of single cell suspension, red blood cells were lysed with Pharma lyse buffer (BD Pharmingen™) and the remaining spleen cells were washed with RPMI 1640. The isolated CD4+ T cells were then resuspended with complete RPMI-media in 12-well plates (5×10^6 cells' 2 ml per well) containing MOG peptide (25 μg/ml) for 48 hrs. […] The cell pellets were washed with cell staining solution (ebioscience, Waltham, Mass. USA) and stained with fluorescence labeled antibody specific to IFN-γ for TH1. […] The cells were counted and analyzed using Beackman Coulter instrument (Beckman Coulter, Inc., Brea, Calif., USA).
# ELISA assay was performed for analysis of CD4+ T cell subset specific cytokines released from cultured cells or spinal cord tissues. […] The equal amounts of proteins were analyzed for ELISA for IFN-γ. […]
# IFN-γ, IL-17 = experiment: IFN-γ and IL-17 in spinal cords of passively immunized EAE mice, ELISA; format: in vivo, SJL mice; conditions: T cells from GSNO treated vs untreated EAE mice
# Method: At the peak of EAE disease, the mice were sacrificed and CD4+ T cells were purified from draining lymph nodes (DLN) and spleens by CD4+ T cell isolation kit (Miltenyi, Auburn. Calif.). The purified T cells (2.5×10^6 cells/ml) were cultured in 96-well round-bottom microculture plates (Falcon Labware, Oxnard, Calif.) in RPMI-complete media containing RPMI 1640 (Life Technologies, Gaithersburg, Md.), 10% FBS, and 100 μg/ml streptomycin and penicillin (Atlanta Biologicals Norcross, Ga.), 1 mM glutamine, 1 mM nonessential amino acids, and 50 μM 2-mercaptoethanol (Sigma-Aldrich). For skewing of different CD4+ T cell subsets and their expansion, the isolated CD4+ T cells were stimulated with PLP139-151 (5 μg/ml) with IL-2 (10 ng/ml) for TH0, IL-2 (10 ng/ml), rhIL-12p35 (10 ng/ml), and anti-IL-4 (1 μg/ml) for TH1, or recombinant mouse IL-12/23p40 homodimer (10 ng/ml), anti-IFN-γ 1 (μg/ml), anti-IL-4 (1 μg/ml) for TO 17. All cytokines and antibodies were purchased from BD Biosciences (San Diego, Calif.). […]
# (20-30×10^6 T cells in 300 μl RPMI media per mouse) were injected to naive SJL female mice (8-10 week old) via intraperitoneal route. […] Clinical EAE disease was measured as describe above.
# hBMVECs = experiment: Assay of trans-endothelial electrical resistance (TEER) in thrombin treated hBMVECs; format: cell-based, human; conditions: thrombin 0.1 unit/ml; GSNO 100 μM or SIN-1 500 μM pretreated 2 hr
# Method: Cell culture: Primary human brain microvascular endothelial cells (hBMVECs) were purchased from Angio-Proteomie (Cat #: cAP-0002, Atlanta, Ga.). The cells were cultured in cell culture flasks or plates precoated with Quick Coating Solution (Angio-Proteomie; Cat #: cAP-01) and maintained in Endothelial Growth Medium (Angio-Proteomie; Cat #: cAP-02) at 37° C. under 5% CO2/95% air. When the cells were almost confluent, the medium was replaced with endothelial basal medium (Angio-Proteomie; Cat #: cAP-03) containing 0.5% fetal bovine serum (FBS; Life Technologies, Grand Island, N.Y.) about 8-12 hours before the experiment. No institutional approval was required for this study. The study was not pre-registered. For evaluation of the endothelial barrier function, hBMVECs were plated on fibronectin-coated polycarbonate filters (Transwell system, Corning, Midland, N.C.) containing Endothelial Growth Medium (Angio-Proteomie Cat #: cAP-02). The medium was renewed every other day. Five days after seeding, the medium was replaced with Endothelial Basal Medium (Angio-Proteomie Cat #: cAP-03) containing 0.5% FBS and incubated for 2 days. Following drug treatments, transendothelial electrical resistance (TEER) was measured by EVOM2 (Word Precision Instruments) as described previously (Li et al., 2006).
Structure (SMILES),IL-10 production from spleen derived cells [1],production of IFN-γ from spleen derived cells [1],production of IL-17 from spleen derived cells [1],IL-4 production from spleen derived cells ([1]; to the control levels),"IFN-γ in the spinal cords of passively immunized mice (IFN-γ, IL-17)","IL-17 in the spinal cords of passively immunized mice (IFN-γ, IL-17)",thrombin-induced loss of TEER (hBMVECs)
"Cc1cc(C(N)=O)ccc1-n1c(CCC(=O)O)ccc1-c1ccc(-n2ccnc2)cc1 [N6022, reference compound]",enhanced,decreased,decreased,fully restored,–,–,–
"N[C@@H](CCC(=O)N[C@@H](CSN=O)C(=O)NCC(=O)O)C(=O)O [GSNO, S-nitrosoglutathione]",–,–,–,–,comparable levels,significantly lower levels,inhibited

# — patent publication US10925858B2, “S-nitrosoglutathione (GSNO) and GSNO reductase inhibitors for use in therapy” (MUSC FOUNDATION FOR RESEARCH DEVELOPMENT, priority 2017, dated 2021)
